According to ChEMBL document CHEMBL5442663, “ASAP - Solubility” (2024):
Converted amounts (≈) assume the structure as drawn.

assay: Kinetic solubility of compound by measuring concentration at pH 7.4 in saturated PBS buffer by UV LCMS/MS using calibration curves. The assay has been performed by Enamine biological services, Bienta Ltd.The protocol is publicly available: dx.doi.org/10.17504/protocols.io.j8nlk8y41l5r/v1; type: physicochemical; settings: PBS buffer

solubility kinetic	Compound
367 µM (≈ 134 µg/mL)	COc1ccc([C@H](Cc2nnn[nH]2)NC(=O)c2ncnc3[nH]ccc23)cc1
358 µM (≈ 144 µg/mL)	C[C@H](C(=O)O)[C@@H](NC(=O)c1ncnc2[nH]ccc12)c1ccc(Br)cc1
19 µM (≈ 9.04 µg/mL)	CC(C)[C@H](Nc1ncnc2[nH]c(-c3cnn(CC(=O)N(C)C)c3)cc12)c1ccc2c(c1)OCCO2
